{"source": "patent US20230365625A1", "about": "“METHODS FOR TREATING AND/OR PREVENTING UNDESIRABLE SEQULAE OF NASAL TURBINOPLASTY OR FUNCTIONAL ENDOSCOPIC SINUS SURGERY” (3-D Matrix, Ltd., priority 2022, published 2023)", "key": {"[1]": {"test_system": "turbinate reduction surgery (TRS/Turbinoplasty)", "settings": "first follow-up at four weeks; result in words; cited from earlier work"}, "[2]": {"settings": "in solution before DMEM; RADA16 assumed 2.5% wt/vol, IEIK13 concentration unknown; cited from earlier work"}, "[3]": {"settings": "RADA16 2.5%, IEIK13 1.3%, QLEL12 0.15% in water; result in words; cited from earlier work"}, "[4]": {"test_system": "Functional Endoscopic Sinus Surgery (FESS) surgical wound", "type": "in vivo, human", "from_the_text": "Study design—This study was a retrospective chart review of 94 consecutive human patients who underwent FESS and who were operated on by a single surgeon in a single center in Perth, Western Australia. FIGS. 6A and 6B show a flowchart of patients based on extent of surgery and outcomes. Only patients treated with PuraSinus alone (no other hemostatic agent was used) were included in the analysis. Ethics approval was obtained from St John of Good Health Care Human Research Ethics Committee.\nPatient population—The study included adult human patients who underwent FESS procedures and also included patients who underwent FESS in combination with nasal surgery (septoplasty and/or turbinoplasty). Both primary and revision cases were included. Patients were discharged the day after surgery with a recommendation to perform saline nasal irrigations no less than four times a day. Patient characteristics, indication for surgery, extent of surgical intervention, and bleeding and adhesion information was recorded.\nSurgical categories—Procedures were performed according to the minimally invasive sinus technique (MIST), including combination of maxillary antrostomy, ethmoidectomies, sphenoidotomies and frontal sinus (Draf Ila, or Draf 111), turbinate reduction and/or septoplasty. FESS procedures were categorized into two groups: complete FESS (including all sinuses—maxillary antrostomy, ethmoidectomy, sphenoidotomy, and frontal sinusotomy) or limited FESS (anything less than complete FESS, usually involves antrostomy and ethmoidectomy). The surgical extent was dictated by the patient's condition and the surgeon's clinical judgement.\nMaterial used—PuraSinus (licensed as PuraStat in Australia, 3D-Matrix)/RADA16-I (SEQ ID NO:1) 2.5% w/v in water is a transparent SAP solution supplied sterile in a pre-filled syringe (available in a 3 mL and 5 mL form) ready for use with a thin application nozzle suited for endoscopic catheter administration. The syringe is stored at between 2° C. and 8° C. At completion of the FESS procedure, PuraSinus was applied to the surgical wound in a thin and even layer as close as possible to the bleeding point. A similar application technique has been outlined previously (M. Lee et al., Int. J. Surg. Case Rep. 41: 461-4 (2017)). […] Tissues treated with the hydrogel were visible via endoscope given the gel's transparency.\nOutcomes and objectives—The objectives of this study were to evaluate the effectiveness of PuraSinus in rapidly achieving intraoperative hemostasis and to assess the incidence of delayed bleeding ([…]) and synechiae formation via endoscopic observation of the nasal mucosa at follow-up visits. Primary bleeding was defined as bleeding occurring within 24 hours of surgery.\nData analysis—Statistical analysis was performed using descriptive statistics for continuous variables and patient demographics were reported. The rate of successful hemostasis and incidence of synechiae formation were calculated as a proportion of total patients undergoing FESS.\nAdhesions—Nasal endoscopic examination of each patient was performed at a first follow-up visit occurring between 7 and 30 days after surgery (median 15 days, mean±SD 14.0±3.7 days). A subsequent follow-up examination of each patient was performed on average on day 42, ranging from 28 to 79 days post-surgery. […] Debridement of the observed synechiae was performed in these cases in the outpatient setting by either suction (n=13) or scissors (n=10). […] Thus, the desired outcome of intraoperative treatment with PuraSinus (SEQ ID NO:1) in achieving recovery without synechiae formation in these patients was nearly 90% (n=84/94). None of the patients who had required additional intervention for hemostasis subsequently presented with adhesion formation."}}, "note": "Several values for one entry are separate records, joined by “and”; a condition that tells them apart may be missing. Equal values may be shown once."}
{"smiles": "CC(=O)N[C@@H](CCCNC(=N)N)C(=O)N[C@@H](C)C(=O)N[C@@H](CC(=O)O)C(=O)N[C@@H](C)C(=O)N[C@@H](CCCNC(=N)N)C(=O)N[C@@H](C)C(=O)N[C@@H](CC(=O)O)C(=O)N[C@@H](C)C(=O)N[C@@H](CCCNC(=N)N)C(=O)N[C@@H](C)C(=O)N[C@@H](CC(=O)O)C(=O)N[C@@H](C)C(=O)N[C@@H](CCCNC(=N)N)C(=O)N[C@@H](C)C(=O)N[C@@H](CC(=O)O)C(=O)N[C@@H](C)C(N)=O", "note": "[PuraSinus, Ac-RADARADARADARADA-NH2]", "values": [{"measurement": "Postoperative bleeding or adhesion formation", "setting": "[1]", "result": "none of their patients experiencing bleeding or adhesion formation postoperatively"}, {"measurement": "Median loss modulus G″", "setting": "[2]", "result": 24, "unit": "Pa"}, {"measurement": "Median storage modulus G′", "setting": "[2]", "result": 384, "unit": "Pa"}, {"measurement": "Effect of gamma-irradiation sterilization", "setting": "[3]", "result": "enhanced the rheological properties"}, {"measurement": "Adhesion formation at first follow up visit, patients", "setting": "[4]; 7-30 days after surgery", "result": 18}, {"measurement": "Persisting adhesions, patients", "setting": "[4]; final outcome, of 23", "result": 5}, {"measurement": "Resolved adhesions, patients", "setting": "[4]; final outcome, of 23", "result": 18}, {"measurement": "Adhesion formation, total patients", "setting": "[4]; full follow-up period, n of 94", "result": 23}, {"measurement": "Adhesion (synechiae) formation, rate", "setting": "[4]; full follow-up period, of 94 patients", "result": 24.5, "unit": "%"}, {"measurement": "Pain at the surgical site", "setting": "[4]; human, in vivo", "result": "all patients expressed comfort with no pain"}, {"measurement": "Patients with no adhesions found", "setting": "[4]; n of 94", "result": 71}, {"measurement": "Adhesion location: Inferior turbinate/septum + medial turbinate/lateral wall, patients", "setting": "[4]; of 23", "result": 4}, {"measurement": "Adhesion location: Inferior turbinate/septum, patients", "setting": "[4]; of 23", "result": 12}, {"measurement": "Adhesion location: Medial turbinate/lateral wall, patients", "setting": "[4]; of 23", "result": 7}, {"measurement": "Debridement by scissors (sharp), patients", "setting": "[4]; of 23", "result": 10}, {"measurement": "Debridement by suction, patients", "setting": "[4]; of 23", "result": 13}, {"measurement": "Patients with adhesion formation: Complete FESS", "setting": "[4]; of 23", "result": 8}, {"measurement": "Patients with adhesion formation: Female", "setting": "[4]; of 23", "result": 16}, {"measurement": "Patients with adhesion formation: Limited FESS", "setting": "[4]; of 23", "result": 15}, {"measurement": "Patients with adhesion formation: Male", "setting": "[4]; of 23", "result": 7}, {"measurement": "Patients free of adhesions, rate", "setting": "[4]; second follow-up examination, of 94 patients", "result": "~90% and 89.4%"}, {"measurement": "Patients without adhesions", "setting": "[4]; second follow-up, no adhesions or adhesions easily removed by suction, of 94", "result": "84 and 84/94"}]}
